# Test results as given in patent US7563781B2, “Triazolopyrimidine derivatives” (Janssen Pharmaceutica NV, priority 2006, dated 2009).
# What was measured:
# [1] = target: T1, CAK complex (human Cdk7, human Cyclin H, MAT-1) (Homo sapiens, UniProt P50613); assay: in vitro time-resolved-fluorescence assay for the CAK kinase activity; assay type: biochemical; details: compound 20 uM; read-out: CAK % inhib; 20 uM
# T1 construct: made in house; host or cells: SF-900 insect cells co-infected with Flag-Cdk7 and Bab-Cyclin H baculoviruses
# From the text: Cyclin Dependent Kinase Activating Kinase (CAK) is a complex of proteins that phosphorylates a well-conserved threonine (Thr) residue in all mammalian cyclin dependent kinases (cdks). The CAK complex can also phosphorylate several components of the transcriptional machinery, such as the C-terminal domain (CTD) of RNA polymerase II in the TFIIH transcription complex. The CAK complex localizes to the nucleus, and is composed of three proteins: Cdk7, Cyclin H, and MAT-1. The exemplified method teaches the cloning and expression CAK subunits, particularly a human Cdk7 and a human Cyclin H. The method of the present invention exemplified herein is equally applicable to the cloning and expression of any CAK subunit, such as variants, structural or functional polymorphisms of the human Cdk7 or the human Cyclin H, or their orthologs in other animals such as rat, mouse, pig, dog and monkey.
# The CAK complex was purified from co-infected SF-900 insect cells at 48 hours post infection by batch immunoaffinity purification. The infected cells were pelleted by centrifugation and lysed in 1/10 of the culture volume in a solution containing 50 mM Hepes pH 7.5, 10 mM MgCl2, 1 mM DTT, 10 mM Beta-Glycerol phosphate, 20 uM Na-oVO4, 0.2 mM PMSF and 1 μg/mL each of leupeptin, aprotinin, and pepstatin on ice. Cells were mechanically lysed by trituration through a 22-gauge needle followed by sonication or alternately by nitrogen cavitation. The lysed cells were centrifuged at 50,000×G for 1 hour at 4° C. to remove debris and the supernatant was applied to 1/10 volume of prewashed Flag-M2 immunoaffinity resin (Sigma). The CAK complex, by nature of the Flag tagged Cdk7 protein, was allowed to bind to the Flag antibody of the resin overnight at 4° C. with gentle rocking. The resin was washed 4 times with 5 resin volumes of lysis buffer and the bound proteins were eluted by competition with 0.5 mg/mL Flag peptide ([…], American Peptide Co, Inc., SEQ ID NO: 16) in a total of 2 resin volumes. To remove the Flag peptide, the eluted material was applied to PD-10 gel filtration columns (Pharmacia) under conditions recommended by the manufacturer.
# Measurement of CAK kinase activity was accomplished using an antibody methodology in which a Europium labeled antibody binds preferentially to serine phosphorylated GST-CTD substrate. The long-lived europium label fluorescence allows a greater signal-to-noise ratio due to the delay in reading the emission wavelength, thereby eliminating signals from immediate fluorescence and fluorescent pharmaceutical screening compounds.
# The time-resolved-fluorescence assay for the CAK kinase activity is performed as follows. In a well of a black glutathione coated 96 well micro titer plate (Pierce Chemical, No. 15360), the following reagents were added: 1) 25 ul substrate solution containing 500 ng purified GST-CTD in a buffer having 50 mM Hepes pH 7.5, 10 mM MgCl2, 1 mM DTT, 0.2 mM PMSF, 40 uM Na-oVO4, and 22 uM ATP (as a background control, the buffer, including ATP but not substrate was added); 2) 2.5 ul of screening compounds in a diluent containing 30% DMSO/25 mM Hepes pH7.5 (As a control, the diluent only was added. Typically the final concentration of compound is 1 uM); and 3) 250 ng CAK enzyme complex in enzyme buffer containing 25 ul of 50 mM Hepes pH 7.5, 10 mM MgCl2, 1 mM DTT, 0.2 mM PMSF, and 40 uM Na-oVO4. The micro titer plate was shaken for 2 minutes on a titer plate shaker and allowed to incubate at 30° C. for 20 minutes.
# Subsequently, Kinase Stop Solution (75 mM EDTA, 0.2 mM PMSF, 1 mM DTT, 120 uM Na oVO4 in PBS) was added (50 ul/well). The plate was shaken for 2 minutes and incubated overnight at room temperature to allow substrate binding to the wells. The plate contents were flicked out, and the wells of the plate were washed 4 times with 350 ul of wash buffer (Delphia wash buffer, Perkin-Elmer, Inc.). The plate was tapped dry. […]
# [2] = target: T2, Focal Adhesion Kinase (full-length Flag-tagged human FAK) (Homo sapiens, UniProt Q05397); assay: in vitro FAK ELISA kinase assay; assay type: biochemical; details: compound 10 uM; ATP 2 uM; read-out: FAK % Inhib ave: 10 uM
# T2 construct: a purified recombinant full-length Flag-tagged human FAK protein; Flag; made in house; host or cells: baculovirus infected insect cells
# Experimental: Compound effects on the tyrosine kinase activity of Focal Adhesion Kinase were assessed with an in vitro FAK ELISA kinase assay. This assay measures the incorporation of phosphate from ATP into a FAK substrate protein using an antibody specific for phospho-tyrosine.
# 500 ng of FAKsubstrate, a purified recombinant fusion protein of GST and a 73 amino acid region surrounding the Tyr397 human FAK autophosphorylation site, was coated in a high-protein binding polystyrene 96 well plate overnight in a buffer containing 50 mM Hepes, pH 7.5, 150 mM NaCl, 0.1 mM Na-oVO4, 0.1 mM NaF and 1 protease inhibitor tablet/10 mL (Complete Mini-EDTA-free, Roche). The next day this solution was removed and the wells were incubated with 0.2% BSA in 50 mM Hepes, pH 7.5, 150 mM NaCl, 0.2 mM PMSF for 1 hour at 30° C. to block unoccupied protein binding sites. The wells were then washed with 50 mM Hepes, pH 7.5, 150 mM NaCl, 0.1% Tween 20. The kinase reaction was performed with 25 ng/well of FAK enzyme (a purified recombinant full-length Flag-tagged human FAK protein made in baculovirus infected insect cells) in 0.1 mL of a buffer containing 25 mM Hepes, pH 7.5, 5 mM MgCl2, 0.5 mM MnCl2, 10 uM NaoVO4, 0.2 mM PMSF. Compounds were added from 30% DMSO stock solutions for a screening concentration of 10 uM or IC50 determinations from 50 uM in half-log dilutions. The reaction is initiated with addition of ATP to a final concentration of 2 uM and incubated at 30° C. for 1 hour. Following the kinase reaction step, the wells were washed and incubated with 50 ng of Horseradish Peroxidase conjugated anti-phosphotyrosine antibody (PT-66 HRP, Sigma) in 0.1 mL wash buffer for 1 hour at 30° C. Wells were then washed and 0.1 mL HRP substrate, Tetra-methyl Benzidine (Sigma) was added and the color reaction allowed to proceed for 2-3 minutes followed by the addition of 0.1 mL of 1N H2SO4 to stop the HRP reaction. Percent inhibition of FAK kinase activity was calculated by comparing compound containing wells to wells treated with diluent only. Background was subtracted from all wells and was defined as the activity of FAK using 500 ng/well of BSA as a substrate. IC50 values were obtained using Prism data analysis software.
# T2 sequence (Q05397 whole entry): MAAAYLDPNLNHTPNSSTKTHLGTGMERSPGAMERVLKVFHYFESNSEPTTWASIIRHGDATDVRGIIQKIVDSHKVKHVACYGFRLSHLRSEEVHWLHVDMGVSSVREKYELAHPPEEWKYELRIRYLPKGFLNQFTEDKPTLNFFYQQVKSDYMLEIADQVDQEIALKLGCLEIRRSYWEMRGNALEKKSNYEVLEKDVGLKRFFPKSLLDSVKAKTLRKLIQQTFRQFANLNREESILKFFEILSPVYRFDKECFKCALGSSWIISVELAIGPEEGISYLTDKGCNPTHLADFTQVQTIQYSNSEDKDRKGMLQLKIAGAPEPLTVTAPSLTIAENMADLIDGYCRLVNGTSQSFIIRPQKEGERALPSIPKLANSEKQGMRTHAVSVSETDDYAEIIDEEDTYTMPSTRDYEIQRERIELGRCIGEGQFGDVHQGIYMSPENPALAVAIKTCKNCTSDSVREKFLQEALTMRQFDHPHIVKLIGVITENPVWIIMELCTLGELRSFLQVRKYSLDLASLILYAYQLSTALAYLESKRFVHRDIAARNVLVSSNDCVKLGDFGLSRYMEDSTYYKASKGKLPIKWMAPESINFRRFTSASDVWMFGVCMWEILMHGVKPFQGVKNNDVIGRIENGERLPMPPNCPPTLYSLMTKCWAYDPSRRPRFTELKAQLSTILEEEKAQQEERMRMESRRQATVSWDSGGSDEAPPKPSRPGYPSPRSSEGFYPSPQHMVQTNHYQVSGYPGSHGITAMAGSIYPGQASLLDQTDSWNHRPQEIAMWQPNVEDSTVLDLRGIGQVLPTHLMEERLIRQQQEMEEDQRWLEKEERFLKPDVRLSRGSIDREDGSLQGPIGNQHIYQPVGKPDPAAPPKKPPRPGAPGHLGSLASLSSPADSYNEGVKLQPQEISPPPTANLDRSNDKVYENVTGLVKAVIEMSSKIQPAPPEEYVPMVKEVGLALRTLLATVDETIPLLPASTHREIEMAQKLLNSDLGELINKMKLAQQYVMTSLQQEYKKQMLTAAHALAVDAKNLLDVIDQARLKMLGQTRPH
# T1 sequence (P50613 with tags, fused parts or gaps): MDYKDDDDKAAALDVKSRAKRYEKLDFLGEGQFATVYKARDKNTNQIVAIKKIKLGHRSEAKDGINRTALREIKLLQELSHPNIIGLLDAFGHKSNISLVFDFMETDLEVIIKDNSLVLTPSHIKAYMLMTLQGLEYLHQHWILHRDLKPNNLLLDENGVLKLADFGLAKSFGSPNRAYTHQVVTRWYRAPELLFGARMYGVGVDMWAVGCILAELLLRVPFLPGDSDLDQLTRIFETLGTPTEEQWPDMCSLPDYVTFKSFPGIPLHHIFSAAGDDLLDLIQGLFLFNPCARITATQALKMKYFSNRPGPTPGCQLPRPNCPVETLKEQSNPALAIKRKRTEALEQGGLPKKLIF
# T1 sequence (as listed by the source partner): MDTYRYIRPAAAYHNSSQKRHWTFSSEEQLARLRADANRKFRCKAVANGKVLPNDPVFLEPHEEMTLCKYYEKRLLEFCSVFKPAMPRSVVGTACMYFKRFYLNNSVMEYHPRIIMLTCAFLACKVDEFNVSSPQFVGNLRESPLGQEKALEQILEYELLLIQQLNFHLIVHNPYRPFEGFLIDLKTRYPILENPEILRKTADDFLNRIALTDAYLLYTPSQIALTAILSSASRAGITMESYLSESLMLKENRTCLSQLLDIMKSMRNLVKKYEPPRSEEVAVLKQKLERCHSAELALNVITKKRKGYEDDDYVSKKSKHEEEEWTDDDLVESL
Structure (SMILES),inhibition at 20 µM [1] [%],inhibition at 10 µM [2] [%]
"Cc1nccc(-c2cccc(-n3nnc4cnc(Nc5ccc(-c6csnn6)cc5)nc43)c2)n1 [Compound 36, {3-[3-(2-Methyl-pyrimidin-4-yl)-phenyl]-3H-[1,2,3]triazolo[4,5-d]pyrimidin-5-yl}-(4-[1,2,3]thiadiazol-4-yl-phenyl)-amine]",2.3,-1.2
"CNC(=O)c1cccc(Nc2ncc3nnn(-c4cccc(-c5ccnc(C)n5)c4)c3n2)c1 [Compound 37, N-Methyl-3-{3-[3-(2-methyl-pyrimidin-4-yl)-phenyl]-3H-[1,2,3]triazolo[4,5-d]pyrimidin-5-ylamino}-benzamide]",-1.1,-7
"c1ccc(-c2cccc(Nc3ncc4nnn(-c5ccc(-c6csnn6)cc5)c4n3)c2)cc1 [Compound 38, Biphenyl-3-yl-[3-(4-[1,2,3]thiadiazol-4-yl-phenyl)-3H-[1,2,3]triazolo[4,5-d]pyrimidin-5-yl]-amine]",27.2,3.4
"CNC(=O)c1cccc(Nc2ncc3nnn(-c4ccc(-c5csnn5)cc4)c3n2)c1 [Compound 39, N-Methyl-3-[3-(4-[1,2,3]thiadiazol-4-yl-phenyl)-3H-[1,2,3]triazolo[4,5-d]pyrimidin-5-ylamino]-benzamide]",-1.5,3.2
"CNC(=O)c1cccc(-n2nnc3cnc(Nc4cccc(-c5ccnc(C)n5)c4)nc32)c1 [Compound 40, N-Methyl-3-{5-[3-(2-methyl-pyrimidin-4-yl)-phenylamino]-[1,2,3]triazolo[4,5-d]pyrimidin-3-yl}-benzamide]",-2.21,6.99
"CNC(=O)c1cccc(-n2nnc3cnc(Nc4cccc(-c5ccccc5)c4)nc32)c1 [Compound 41, 3-[5-(Biphenyl-3-ylamino)-[1,2,3]triazolo[4,5-d]pyrimidin-3-yl]-N-methyl-benzamide]",5.6,-3.2
"COc1cc(Nc2ncc3nnn(-c4cc(OC)c(OC)c(OC)c4)c3n2)cc(OC)c1OC [Compound 42, (3,4,5-Trimethoxy-phenyl)-[3-(3,4,5-trimethoxy-phenyl)-3H-[1,2,3]triazolo[4,5-d]pyrimidin-5-yl]-amine]",3.4,35.6
COc1cc(-n2nnc3cnc(Nc4ccc5[nH]ncc5c4)nc32)cc(OC)c1OC [Compound 43],11.8,33.3

# The remaining lines, values ahead:
inhibition at 20 µM [1] [%],inhibition at 10 µM [2] [%],Structure (SMILES)
10.2,24.7,"COc1cc(-n2nnc3cnc(Nc4cccc(S(N)(=O)=O)c4)nc32)cc(OC)c1OC [Compound 44, 3-[3-(3,4,5-Trimethoxy-phenyl)-3H-[1,2,3]triazolo[4,5-d]pyrimidin-5-ylamino]-benzene-sulfonamide]"
16.2,21.8,"NS(=O)(=O)c1ccccc1-n1nnc2cnc(Nc3ccc4[nH]ncc4c3)nc21 [Compound 45, 2-[5-(1H-Indazol-5-ylamino)-[1,2,3]triazolo[4,5-d]pyrimidin-3-yl]-benzene-sulfonamide]"
44.9,29.2,NS(=O)(=O)c1ccccc1Nc1ncc2nnn(-c3ccccc3S(N)(=O)=O)c2n1 [Compound 46]
51.3,63.6,NS(=O)(=O)c1cccc(Nc2ncc3nnn(-c4cccc(S(N)(=O)=O)c4)c3n2)c1 [Compound 47]
-37.4,7.44,CCCCNS(=O)(=O)c1cccc(Nc2ncc3nnn(-c4cccc(S(=O)(=O)NCCCC)c4)c3n2)c1 [Compound 48]
44.6,99.5,CCCCNS(=O)(=O)c1cccc(-n2nnc3cnc(Nc4ccc(C(=O)NCCN(CC)CC)cc4)nc32)c1 [Compound 49]
31.7,48.4,"CCCCNS(=O)(=O)c1cccc(-n2nnc3cnc(Nc4ccc(N5CCN(Cc6ccccc6)CC5)cc4)nc32)c1 [Compound 50, 3-{5-[4-(4-Benzyl-piperazin-1-yl)-phenylamino]-[1,2,3]triazolo[4,5-d]pyrimidin-3-yl]-N-butyl-benzene-sulfonamide]"
-19.1,47.9,CCN(CC)CCNC(=O)c1ccc(Nc2ncc3nnn(-c4ccc(C(=O)NCCN(CC)CC)cc4)c3n2)cc1 [Compound 52]
43.7,60.5,"CCN(CC)CCNC(=O)c1ccc(-n2nnc3cnc(Nc4ccc(N5CCN(Cc6ccccc6)CC5)cc4)nc32)cc1 [Compound 53, 4-{5-[4-(4-Benzyl-piperazin-1-yl)-phenylamino]-[1,2,3]triazolo[4,5-d]pyrimidin-3-yl}-N-(2-diethylamino-ethyl)-benzamide]"
20.5,15.2,"CCCCNS(=O)(=O)c1cccc(Nc2ncc3nnn(-c4ccc(N5CCN(Cc6ccccc6)CC5)cc4)c3n2)c1 [Compound 54, 3-{3-[4-(4-Benzyl-piperazin-1-yl)-phenyl]-3H-[1,2,3]triazolo[4,5-d]pyrimidin-5-ylamino}-N-butyl-benzene-sulfonamide]"
-6.2,10.8,"CN(C1CCCCC1)S(=O)(=O)c1ccccc1Nc1ncc2nnn(-c3ccc(N4CCN(Cc5ccccc5)CC4)cc3)c2n1 [Compound 55, 2-{3-[4-(4-Benzyl-piperazin-1-yl)-phenyl]-3H-[1,2,3]triazolo[4,5-d]pyrimidin-5-ylamino}-N-cyclohexyl-N-methyl-benzene-sulfonamide]"
